The values below come from patent US9340590B2 (priority 2011, dated 2016).

Like-named read-outs stand apart in the source and are kept apart here. Positions of bridges follow the written chain, without caps; N, C: chain ends. Residues, ends and D or L forms follow the SMILES beside them. No end group written: not given here.

This test has as its target hNav1.7 (Homo sapiens, UniProt Q15858). The test is described as follows: cell-based. The test is classed as cell-based. The following applies: for IC50: read-out: IWQ Use Nav1.7.

hNav1.7, sequence (Q15858 whole entry, looked up): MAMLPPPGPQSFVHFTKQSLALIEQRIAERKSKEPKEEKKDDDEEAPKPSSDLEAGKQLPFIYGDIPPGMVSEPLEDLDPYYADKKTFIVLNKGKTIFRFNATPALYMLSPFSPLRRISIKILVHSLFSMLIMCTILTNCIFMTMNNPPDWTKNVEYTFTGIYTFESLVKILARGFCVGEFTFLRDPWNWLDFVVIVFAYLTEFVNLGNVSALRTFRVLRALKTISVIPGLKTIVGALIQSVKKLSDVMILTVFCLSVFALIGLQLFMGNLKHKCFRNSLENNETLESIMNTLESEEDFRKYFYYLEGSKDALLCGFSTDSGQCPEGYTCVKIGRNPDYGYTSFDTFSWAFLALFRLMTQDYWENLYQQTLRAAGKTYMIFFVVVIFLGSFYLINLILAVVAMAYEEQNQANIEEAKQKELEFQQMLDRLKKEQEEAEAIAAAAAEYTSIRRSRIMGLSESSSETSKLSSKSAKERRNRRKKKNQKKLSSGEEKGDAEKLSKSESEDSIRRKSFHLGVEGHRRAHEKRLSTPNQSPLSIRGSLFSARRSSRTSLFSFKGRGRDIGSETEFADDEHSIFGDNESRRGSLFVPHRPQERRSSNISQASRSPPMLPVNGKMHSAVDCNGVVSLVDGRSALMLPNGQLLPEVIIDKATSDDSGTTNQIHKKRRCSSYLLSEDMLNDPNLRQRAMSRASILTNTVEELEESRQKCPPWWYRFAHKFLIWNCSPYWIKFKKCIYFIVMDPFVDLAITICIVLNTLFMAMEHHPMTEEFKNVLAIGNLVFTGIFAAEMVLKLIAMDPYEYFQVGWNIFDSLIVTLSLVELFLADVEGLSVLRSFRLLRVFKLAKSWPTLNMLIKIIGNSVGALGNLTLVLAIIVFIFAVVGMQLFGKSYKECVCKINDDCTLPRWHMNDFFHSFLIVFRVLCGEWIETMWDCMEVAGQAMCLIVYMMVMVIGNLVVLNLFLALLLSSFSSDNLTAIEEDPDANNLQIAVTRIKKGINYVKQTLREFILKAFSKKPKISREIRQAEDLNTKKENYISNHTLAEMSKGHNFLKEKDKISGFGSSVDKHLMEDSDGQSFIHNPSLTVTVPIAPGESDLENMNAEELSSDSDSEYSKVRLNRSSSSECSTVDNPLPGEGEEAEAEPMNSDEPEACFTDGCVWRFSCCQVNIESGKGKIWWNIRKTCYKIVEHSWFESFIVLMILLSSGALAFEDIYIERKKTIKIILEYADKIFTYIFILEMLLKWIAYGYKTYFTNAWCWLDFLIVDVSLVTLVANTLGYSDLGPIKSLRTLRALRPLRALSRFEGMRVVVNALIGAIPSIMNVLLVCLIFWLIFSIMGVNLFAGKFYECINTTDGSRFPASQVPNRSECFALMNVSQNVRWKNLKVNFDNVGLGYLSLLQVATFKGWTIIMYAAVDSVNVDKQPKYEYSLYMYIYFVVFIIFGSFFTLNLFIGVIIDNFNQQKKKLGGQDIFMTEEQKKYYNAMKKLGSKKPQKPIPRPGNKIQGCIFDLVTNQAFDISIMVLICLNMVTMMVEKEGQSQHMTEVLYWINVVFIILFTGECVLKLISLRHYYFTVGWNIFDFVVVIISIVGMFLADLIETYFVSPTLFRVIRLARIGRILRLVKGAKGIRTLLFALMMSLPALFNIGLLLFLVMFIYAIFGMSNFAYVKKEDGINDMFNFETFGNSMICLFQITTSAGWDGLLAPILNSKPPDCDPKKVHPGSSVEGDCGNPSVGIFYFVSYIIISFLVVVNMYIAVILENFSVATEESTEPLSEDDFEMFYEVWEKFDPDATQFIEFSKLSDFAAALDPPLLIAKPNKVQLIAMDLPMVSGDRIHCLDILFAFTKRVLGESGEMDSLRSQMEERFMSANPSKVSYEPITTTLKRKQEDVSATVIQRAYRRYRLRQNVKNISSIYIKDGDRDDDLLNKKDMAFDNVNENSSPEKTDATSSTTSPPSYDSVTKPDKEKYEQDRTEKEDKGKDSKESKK

Consider `CC[C@H](C)[C@@H]1NC(=O)[C@@H]2CSSC[C@@H]3NC(=O)[C@H](CCCNC(=N)N)NC(=O)[C@H](CC(C)C)NC(=O)[C@H](CC(N)=O)NC(=O)[C@@H]4CCCN4C(=O)[C@H](CCCNC(=N)N)NC(=O)[C@H](CSSC[C@H](NC(=O)[C@@H](N)CC(=O)O)C(=O)N[C@@H](CC(C)C)C(=O)NCC(=O)N[C@@H](Cc4ccccc4)C(=O)N[C@@H](CCSC)C(=O)N[C@@H](CCCNC(=N)N)C(=O)N[C@@H](CCCCN)C(=O)N2)NC(=O)[C@H](CSSC[C@@H](C(=O)N[C@@H](CCCCN)C(=O)N[C@@H](Cc2ccc(O)cc2)C(=O)N[C@H](C(=O)N[C@@H](Cc2ccccc2)C(N)=O)C(C)C)NC(=O)[C@H](Cc2c[nH]c4ccccc24)NC(=O)[C@H](CCCCN)NC(=O)[C@H](Cc2c[nH]cn2)NC(=O)[C@H]([C@@H](C)O)NC(=O)[C@H](CCCNC(=N)N)NC(=O)[C@H](CO)NC3=O)NC(=O)[C@H](CCCCN)NC(=O)[C@H](CC(=O)O)NC(=O)[C@H](CC(N)=O)NC(=O)[C@H](CC(=O)O)NC(=O)[C@@H]2CCCN2C1=O` [compound 158] (H-DCLGFMRKCIPDNDKCCRPNLRCSRTHKWCKYVF-NH2; disulfide 2-17, 9-23, 16-30), for which the IC50 (IonWorks Quattro, Use) was found to be 60 nM. With `CSCC[C@@H]1NC(=O)[C@H](Cc2ccccc2)NC(=O)CNC(=O)[C@H](CC(C)C)NC(=O)[C@@H](NC(=O)[C@@H](N)CC(=O)O)CSSC[C@@H]2NC(=O)[C@@H]3CSSC[C@@H](C(=O)N[C@@H](CCCCN)C(=O)N[C@@H](Cc4ccc(O)cc4)C(=O)N[C@H](C(=O)N[C@@H](Cc4ccccc4)C(N)=O)C(C)C)NC(=O)[C@H](Cc4c[nH]c5ccccc45)NC(=O)[C@H](CCCCN)NC(=O)[C@H](Cc4c[nH]cn4)NC(=O)[C@H]([C@@H](C)O)NC(=O)[C@H](CCCNC(=N)N)NC(=O)[C@H](CO)NC(=O)[C@H](CSSC[C@H](NC(=O)[C@H](CCCCN)NC(=O)[C@H](CCCNC(=N)N)NC1=O)C(=O)N[C@@H](CC(=O)O)C(=O)N1CCC[C@H]1C(=O)N[C@@H](CC(=O)O)C(=O)N[C@@H](CC(N)=O)C(=O)N[C@@H](CC(=O)O)C(=O)N[C@@H](CCCCN)C(=O)N3)NC(=O)[C@H](C(C)C)NC(=O)[C@H](CC(C)C)NC(=O)[C@H](CC(N)=O)NC(=O)[C@@H]1CCCN1C(=O)[C@H](CCCNC(=N)N)NC2=O` [SEQ ID NO: 119, [Asp10]GpTx-1] (H-DCLGFMRKCDPDNDKCCRPNLVCSRTHKWCKYVF-NH2; disulfide 2-17, 9-23, 16-30), the IC50 worked out at 220 nM.

In the case of `CC[C@H](C)[C@@H]1NC(=O)[C@@H]2CSSC[C@@H]3NC(=O)[C@H](C(C)C)NC(=O)[C@H](CC(C)C)NC(=O)[C@H](CC(N)=O)NC(=O)[C@@H]4CCCN4C(=O)[C@H](CCCNC(=N)N)NC(=O)[C@H](CSSC[C@H](NC(=O)[C@@H](N)CC(=O)O)C(=O)N[C@@H](CC(C)C)C(=O)NCC(=O)N[C@@H](Cc4ccccc4)C(=O)N[C@@H](CCSC)C(=O)N[C@@H](CCCNC(=N)N)C(=O)N[C@@H](CCCCN)C(=O)N2)NC(=O)[C@H](CSSC[C@@H](C(=O)N[C@@H](CCCCN)C(=O)N[C@@H](Cc2ccc(O)cc2)C(=O)N[C@H](C(=O)N[C@@H](Cc2ccccc2)C(N)=O)C(C)C)NC(=O)[C@H](Cc2c[nH]c4ccccc24)NC(=O)[C@H](CCCCN)NC(=O)[C@H](Cc2c[nH]cn2)NC(=O)[C@H]([C@@H](C)O)NC(=O)[C@H](CCCNC(=N)N)NC(=O)[C@H](CO)NC3=O)NC(=O)[C@H](CCCCN)NC(=O)[C@H](CC(=O)O)NC(=O)[C@H](CC(N)=O)NC(=O)[C@H](CCCNC(=N)N)NC(=O)[C@@H]2CCCN2C1=O` [compound 67] (H-DCLGFMRKCIPRNDKCCRPNLVCSRTHKWCKYVF-NH2; disulfide 2-17, 9-23, 16-30), the IC50 stood at 110 nM. Consider “[Glu18;desAsn20]GpTx-1 (DCLGFMRKCIPDNDKCCEGLVCSRTHKWCKYVF-NH2; ends and bridges not checked)”, for which the “activity against NaV1.7 relative to GpTx-1, in words” value was “without substantial impact on the activity”.
